Experimental data as given in patent US20250263376A1, “(E)-N-CINNAMOYLAMINOALKANOLS WITH MELANOGENESIS INHIBITORY ACTIVITY” (Uniwersytet Jagiellonski, priority 2024, published 2025).
Where two headings read alike, the source gives them in different places.

Experiments:
tyrosinase from mushroom [1] = molecular target: T1, tyrosinase from mushroom (Agaricus bisporus, UniProt C7FF04); assay: Inhibition of commercial mushroom tyrosinase, substrate L-tyrosine; assay type: biochemical; settings: 500 μM; read-out: Tyrosinase inhibition with L-tyrosine [%]
Experimental: (§1) Studies on the Inhibition of the Activity of Commercial Tyrosinase from Mushroom (Sigma: T3824)
(§2) The following substrates were used for the enzymatic reaction: L-tyrosine and L-3,4-dihyroxyphenylalanine (L-DOPA). Both substrates were used in independent experiments. According to the literature, the use of L-DOPA enables the assessment of tyrosinase diphenolase activity, and L-tyrosine—the tyrosinase monophenolase activity. The determinations were performed in 96-well plates, in each well there was placed: 170 μL or 127.5 μL of 50 mM phosphate buffer (pH=6.8) with tyrosinase (1U/well or 3U/well) and 10 μL of a solution of the tested compound in DMSO (the final concentration in the well was 500 μM, 250 μM or 125 μM). The negative control used 10 u L of pure solvent (DMSO). To initiate the reaction, an appropriate substrate was added: L-tyrosine (62.5 μL of solution in phosphate buffer) or L-DOPA (20 μL of solution in phosphate buffer). After a 25-minute incubation, the absorbance was measured at 475 nm using a microplate reader. The percentage of inhibition of tyrosinase activity was calculated using the formula: [(AC−AT)/[…], where AC—is the absorbance of the negative control, AT—is the absorbance of the sample containing the tested compound.

tyrosinase from mushroom [2] = molecular target: T1, tyrosinase from mushroom; assay: Inhibition of commercial mushroom tyrosinase, substrate L-DOPA; assay type: biochemical; settings: 500 μM; read-out: Tyrosinase inhibition with L-DOPA [%]
Experimental: as §1, §2

[3] = test system: B16-F10 murine melanoma cell line; assay: Cytotoxicity (MTT) in B16-F10 murine melanoma cells; assay type: cell-based; settings: 48 h
Experimental: Cytotoxicity Assessment in the B16-F10 Murine Melanoma Cell Line (ATTC CRL-6745)—Preliminary Safety Assessment for Subsequent Studies
In order to determine safe doses of compounds for testing the inhibition of melanogenesis in a murine melanoma cell line, cytotoxicity tests were performed. Cytotoxicity was determined by the colorimetric method using MTT ([3-(4,5-dimethyl-2-thiazolyl)-2,5-diphenyl-2H-tetrazolium bromide, Sigma M5655). For this purpose, cells were transferred to 96-well plates in an amount of 5000/well. After 24 h of culture in an incubator in F10-Ham medium with 1% FBS, the tested compounds at various concentrations were added to the wells together with fresh medium. DMSO was added to the medium in a negative control. The MTT test was performed after further culture for 48 h. Then the medium was removed and the formed formazan crystals were dissolved in DMSO. The absorbance was measured at 570 nm in a plate reader and the result was compared to the control (DMSO), which was 100%. The percentage of viability was calculated using the formula: [AT/AC*100], where AT is the absorbance of the test sample, AC—absorbance of the control sample.

[4] = Lipophilicity coefficient RM0 by reversed phase thin layer chromatography; assay type: physicochemical; settings: RP-18 TLC, methanol/phosphate buffer pH=7.4
Experimental: Confirmation of the identity and purity of the obtained compounds consisted in the registration and interpretation of 1H NMR and 13C NMR spectra (the spectra were recorded using an ECZR 500 MHZ (JEOL) series FT-NMR spectrophotometer), as well as the registration and interpretation of LC-MS spectra (the spectra were recorded using Acquita UPLC system (Waters) coupled with a Waters TQD mass spectrometer). The melting point was measured using the open capillary method in the IA9300 device (Electrothermal). The lipophilicity coefficient RM0 was determined by reversed phase thin layer chromatography. In the study, aluminum plates 20×20 cm covered with modified silica gel RP-18 F254 (Merck) were used as the solid phase. The mobile phase consisted of solutions of methanol and 100 mM phosphate buffer (pH=7.4), characterized by a variable methanol content ranging from 95 to 65% (v/v). The tested compounds were dissolved in methanol to obtain solutions with a concentration of 1 mg/mL. Then, […] of the solutions prepared in this way were transferred to the starting line on aluminum plates, which were then placed in chromatographic chambers previously saturated with mobile phase vapors for at least 1 hour. All activities, including the development of chromatograms, were carried out at room temperature. After developing the chromatograms to approximately 1-2 cm from the end of the plate, the plates were dried and then the distance traveled by the tested compounds was visualized under UV light (λ=254 nm). The experiment was performed in duplicate for the specified conditions. For all samples, Rf was calculated according to the formula Rf=a/b, where a—the distance traveled by the tested compound, b—the distance traveled by the mobile phase. Then, the RM parameter was calculated for all samples according to the formula RM=log (1/Rf−1), obtaining a linear relationship between the RM values and the methanol concentration in the mobile phase. The log P coefficient was also calculated using the following computer programs: ACD/ChemSketch 2020.1.2 and ChemDraw 20.0.0.41.

tyrosinase = settings: cited from earlier work; for mechanism of tyrosinase inhibition: literature [6,7]

T1 sequence (C7FF04 2-392): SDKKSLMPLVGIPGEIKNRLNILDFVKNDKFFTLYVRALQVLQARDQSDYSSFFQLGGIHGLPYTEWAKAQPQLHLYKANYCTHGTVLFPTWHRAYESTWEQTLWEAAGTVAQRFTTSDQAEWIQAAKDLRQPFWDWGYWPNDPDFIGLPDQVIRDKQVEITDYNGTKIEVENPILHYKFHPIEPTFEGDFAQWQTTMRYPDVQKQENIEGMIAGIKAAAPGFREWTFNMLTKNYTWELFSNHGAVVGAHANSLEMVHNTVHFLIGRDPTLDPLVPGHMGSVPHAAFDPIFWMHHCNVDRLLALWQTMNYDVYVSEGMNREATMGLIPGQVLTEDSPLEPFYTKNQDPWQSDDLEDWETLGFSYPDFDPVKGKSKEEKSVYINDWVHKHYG
T1 sequence (G1K3P4 entry or part of it, further chain): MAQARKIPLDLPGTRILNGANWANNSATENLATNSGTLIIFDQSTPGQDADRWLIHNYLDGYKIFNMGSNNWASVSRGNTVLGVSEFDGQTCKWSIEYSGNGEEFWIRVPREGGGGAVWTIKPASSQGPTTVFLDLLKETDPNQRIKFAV

inhibition at 500 µM (tyrosinase from mushroom [1]) [%] | inhibition at 500 µM (tyrosinase from mushroom [2]) [%] | RM0 [4] | Compound | Cytotoxicity study in B16F10 cells, % viability ([3]; 150 μM) [%] | Cytotoxicity study in B16F10 cells, % viability ([3]; 200 μM) [%] | Cytotoxicity study in B16F10 cells, % viability ([3]; 250 μM) [%] | IC50 (tyrosinase; literature [6], read-out: IC50, tyrosinase diphenolase activity) [µM] | mechanism of tyrosinase inhibition (tyrosinase) | IC50 (tyrosinase; literature [7], read-out: IC50, tyrosinase inhibition) [µM]
20.4 ± 2.09 | 16.9 ± 7.94 | 2.27 | Cc1ccc(/C=C/C(=O)NCCCCO)cc1 [H-411/21, (2E)-N-(4-hydroxybutyl)-3-(4-methylphenyl)prop-2-enamide] | 50.6 | 34.9 | 41.2 | – | – | –
– | – | – | COc1ccc(C=CC(=O)O)cc1 [4-methoxycinnamic acid] | – | – | – | 420 | – | –
20 ± 2.96 | 11.2 ± 2.78 | 2.78 | O=C(/C=C/c1ccc(Cl)cc1Cl)NCCCCO [H-298/20, (2E)-3-(2,4-dichlorophenyl)-N-(4-hydroxybutyl)prop-2-enamide] | 46.5 | 40.6 | 37.4 | – | – | –
– | – | – | O=C(O)C=Cc1ccccc1 [Cinnamic acid] | – | – | – | – | non-competitive inhibitor | –
– | – | – | O=C(O)C=Cc1ccccc1Cl [2-Chlorocinnamic acid] | – | – | – | – | reversible non-competitive mechanism | 765
